Consider 17 compounds from ChEMBL document CHEMBL1154010, “Aziridine alkaloids as potential therapeutic agents” (Eur J Med Chem, 2009).

The test system of data set [1] is CCRF S-180. In words: Antitumor activity against mouse S180 cells xenografted in rat. The class given is functional.
Data set [2] can be described thus: Antitumor activity against mouse EAC cells xenografted in rat. The class given is functional, Ehrlich.
Data set [3] relates to HL-60. In words: Cytotoxicity against human HL60 cells. The class given is functional, cell-based.
The subject of data set [4] is L1210. In words: Cytotoxicity against mouse L1210 cells. The class given is functional, cell-based.
In data set [5] the test system is Escherichia coli. In words: Antimicrobial activity against Escherichia coli BEM11. The data set is classed as functional.
Data set [6] concerns Bacillus anthracis. In words: Antimicrobial activity against Bacillus anthracis. The data set is classed as functional.
Data set [7] has as its system Salmonella enterica subsp. enterica. In words: Antimicrobial activity against Salmonella typhi T-63. The data set is classed as functional, Salmonella enterica subsp. enterica serovar Typhi.
For data set [8], the system named is Staphylococcus aureus. In words: Antimicrobial activity against methicillin-resistant Staphylococcus aureus isolate 17. The data set is classed as functional.
Data set [9] relates to Escherichia coli. In words: Antimicrobial activity against Escherichia coli BE1186. The class given is functional.
The subject of data set [10] is Klebsiella pneumoniae. In words: Antimicrobial activity against Klebsiella pneumoniae PCI602. The class given is functional.
In data set [11] the test system is Shigella flexneri. In words: Antimicrobial activity against Shigella flexneri 4bJS11811. The class given is functional.
For data set [12], the system named is Mycolicibacterium vaccae. In words: Antimicrobial activity against Mycobacterium vaccae ATCC 15483. The data set is classed as functional.
For data set [13], the system named is Salmonella enterica subsp. enterica. In words: Antimicrobial activity against Salmonella typhi JS11746. The data set is classed as functional, Salmonella enterica subsp. enterica serovar Typhi.
Data set [14] concerns Micrococcus luteus. In words: Antimicrobial activity against Micrococcus luteus FDA16. The data set is classed as functional.
Data set [15] concerns Bacillus cereus. In words: Antimicrobial activity against Bacillus cereus ATCC 10702. The class given is functional.
Data set [16] has as its system Mycolicibacterium smegmatis. In words: Antimicrobial activity against Mycobacterium smegmatis ATCC 607. The class given is functional.
For data set [17], the system named is Providencia rettgeri. In words: Antimicrobial activity against Providencia rettgeri GN311. The data set is classed as functional.
Data set [18] has as its system Mycolicibacterium smegmatis. In words: Antimicrobial activity against rifamycin-resistant Mycobacterium smegmatis ATCC 607. The data set is classed as functional.
For data set [19], the system named is Pseudomonas aeruginosa. In words: Antimicrobial activity against Pseudomonas aeruginosa A3. The class given is functional.
Data set [20] deals with Salmonella enterica subsp. enterica. In words: Antimicrobial activity against Salmonella enteritidis 1891. The data set is classed as functional, Salmonella enterica subsp. enterica serovar Enteritidis.
Data set [21] deals with Bacillus subtilis. In words: Antimicrobial activity against Bacillus subtilis PCI 219. The class given is functional.
Data set [22] has as its system Escherichia coli. In words: Antimicrobial activity against Escherichia coli BE1126. The data set is classed as functional.
Data set [23] concerns Bacillus subtilis. In words: Antimicrobial activity against Bacillus subtilis NRRL B-558. The data set is classed as functional.
Data set [24] concerns Micrococcus luteus. In words: Antimicrobial activity against Micrococcus luteus PCI 1001. The class given is functional.
The test system of data set [25] is Escherichia coli. In words: Antimicrobial activity against Escherichia coli NIHJ. The class given is functional.
In data set [26] the test system is Providencia rettgeri. In words: Antimicrobial activity against Providencia rettgeri GN466. The data set is classed as functional.
The test system of data set [27] is Staphylococcus aureus. In words: Antimicrobial activity against Staphylococcus aureus FDA209P. The data set is classed as functional.
Data set [28] relates to Escherichia coli. In words: Antimicrobial activity against Escherichia coli K-12. The data set is classed as functional.
Data set [29] concerns Staphylococcus aureus. In words: Antimicrobial activity against Staphylococcus aureus MS9610. The class given is functional.
Data set [30] relates to Proteus mirabilis. In words: Antimicrobial activity against Proteus mirabilis IFM OM-9. The class given is functional.
Data set [31] has as its system Pseudomonas aeruginosa. In words: Antimicrobial activity against Pseudomonas aeruginosa GN315. The class given is functional.
In data set [32] the test system is Staphylococcus aureus. In words: Antimicrobial activity against Staphylococcus aureus Smith. The class given is functional.
For data set [33], the system named is Proteus vulgaris. In words: Antimicrobial activity against Proteus vulgaris OX19. The data set is classed as functional.
In data set [34] the test system is Staphylococcus aureus. In words: Antimicrobial activity against methicillin-resistant Staphylococcus aureus isolate 5. The class given is functional.
Data set [35] has as its system Shigella dysenteriae. In words: Antimicrobial activity against Shigella dysenteriae JS1 1910. The data set is classed as functional.
Data set [36] concerns Escherichia coli. In words: Antimicrobial activity against Escherichia coli K-12 MLI629. The class given is functional.
Data set [37] relates to Corynebacterium bovis. In words: Antimicrobial activity against Corynebacterium bovis 1810. The data set is classed as functional.
Data set [38] deals with Micrococcus luteus. In words: Antimicrobial activity against Micrococcus luteus IFO 3333. The class given is functional.
A short description of data set [39]: Antitumor activity against mouse mammary cancer cell implanted in C3H/An mouse assessed as inhibition of tumor growth at 0.5 mg/day for 14 days. The class given is functional, Cancer cell lines.
Data set [40] relates to Mus musculus. In words: Toxicity in ip dosed ddY mouse bearing mouse S180 cells. To be noted: in vivo. The data set is classed as organism-based, CCRF S-180.
The test system of data set [41] is CCRF S-180. In words: Antitumor activity against mouse S180 cells implanted in ip dosed ddY mouse assessed as tumor volume after 7 days. The data set is classed as functional.
Data set [42] concerns HCT-116. In words: Cytotoxicity against human HCT116 cells. The data set is classed as functional, cell-based.
The nature of data set [43]: Inhibition of trypsin.
The nature of data set [44]: Inhibition of Pepsin.
For data set [45], the target named is Procathepsin L (Homo sapiens) (UniProt P07711). In words: Inhibition of cathepsin L.
Sequence of Procathepsin L (Homo sapiens) (P07711 114-333 limits assumed): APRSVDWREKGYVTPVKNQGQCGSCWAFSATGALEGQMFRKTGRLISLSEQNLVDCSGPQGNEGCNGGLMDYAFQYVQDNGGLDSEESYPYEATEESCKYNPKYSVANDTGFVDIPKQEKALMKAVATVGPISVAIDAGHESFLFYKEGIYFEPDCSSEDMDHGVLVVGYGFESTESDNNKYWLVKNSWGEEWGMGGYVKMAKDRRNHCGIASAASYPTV
For data set [46], the target named is Cathepsin B (Homo sapiens, UniProt P07858). In words: Inhibition of cathepsin B.
The target of data set [47] is Fumarate hydratase, mitochondrial (Sus scrofa, UniProt P10173). In words: Inhibition of pig heart fumarase.
Sequence of Fumarate hydratase, mitochondrial (P10173 whole entry): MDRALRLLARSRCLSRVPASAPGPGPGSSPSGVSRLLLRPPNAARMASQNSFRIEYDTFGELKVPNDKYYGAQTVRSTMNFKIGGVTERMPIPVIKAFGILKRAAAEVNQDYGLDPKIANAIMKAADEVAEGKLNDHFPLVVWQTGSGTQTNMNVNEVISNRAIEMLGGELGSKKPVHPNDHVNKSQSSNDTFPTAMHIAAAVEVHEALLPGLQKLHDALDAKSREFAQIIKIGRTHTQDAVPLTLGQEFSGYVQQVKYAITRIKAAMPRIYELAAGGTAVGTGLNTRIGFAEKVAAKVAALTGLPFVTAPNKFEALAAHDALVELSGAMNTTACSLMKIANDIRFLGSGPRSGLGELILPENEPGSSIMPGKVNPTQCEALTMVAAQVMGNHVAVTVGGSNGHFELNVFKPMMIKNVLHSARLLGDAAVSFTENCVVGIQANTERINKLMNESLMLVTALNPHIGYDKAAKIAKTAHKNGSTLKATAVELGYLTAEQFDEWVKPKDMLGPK
The target of data set [48] is Aspartase (Escherichia coli, UniProt Q59388). In words: Inhibition of Escherichia coli aspartase.
Sequence of Aspartase (Q59388 whole entry): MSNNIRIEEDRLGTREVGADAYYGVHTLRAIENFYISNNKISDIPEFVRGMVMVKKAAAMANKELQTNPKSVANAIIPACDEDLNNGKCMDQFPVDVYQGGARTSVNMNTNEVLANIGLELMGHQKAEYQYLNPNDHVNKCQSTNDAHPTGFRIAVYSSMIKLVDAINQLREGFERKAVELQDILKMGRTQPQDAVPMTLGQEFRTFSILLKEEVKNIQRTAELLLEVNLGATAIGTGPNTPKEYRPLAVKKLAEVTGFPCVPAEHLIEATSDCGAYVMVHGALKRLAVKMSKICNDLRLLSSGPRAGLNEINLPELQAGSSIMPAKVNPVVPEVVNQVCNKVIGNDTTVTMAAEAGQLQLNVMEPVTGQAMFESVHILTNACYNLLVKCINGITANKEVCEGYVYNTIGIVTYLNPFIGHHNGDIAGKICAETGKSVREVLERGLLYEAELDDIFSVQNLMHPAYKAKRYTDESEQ

Values after ≈ are worked out from the molar mass of the structure shown. A value given as a limit tells only on which side of the number the result lay.

Turning to `CC1(C)CC(C(=O)ONP(=O)(N2CC2)N2CC2)CC(C)(C)N1O`, the Activity in data set [1] was determined as 93%; in data set [2], 90%.

The IC50 is the concentration that inhibits the measured activity by half. Read a low IC50 as greater potency. Consider `NCCCCNCCCN1CC1`, for which the concentration for half-maximal inhibition (IC50) amounted to 0.11 µM in [3] and 0.15 µM in data set [4].

Broadly, the MIC is the lowest concentration that inhibits growth of the organism. A high value points to weaker potency. With `COc1c(O)cc2c(OC)c3c(c(O)c2c1O)C(=O)CC1CC(O)(C2CN2C)CC(=O)C31O` (stereo not drawn) [AZICEMICIN A], the MIC was 100 µg/mL (≈ 218 µM) in data set [5]; 100 µg/mL (≈ 218 µM) in [6]; 100 µg/mL (≈ 218 µM) in data set [7]; greater than 100 µg/mL in [8]; 100 µg/mL (≈ 218 µM) in data set [9]; 100 µg/mL (≈ 218 µM) in data set [10]. In addition, the MIC is 50 µg/mL (≈ 109 µM) in [11]; 50 µg/mL (≈ 109 µM) in data set [12]; 100 µg/mL (≈ 218 µM) in [13]; 50 µg/mL (≈ 109 µM) in data set [14]; greater than 100 µg/mL in data set [15]; 50 µg/mL (≈ 109 µM) in data set [16]. Also, the MIC in data set [17] is greater than 100 µg/mL; in data set [18] it was 50 µg/mL (≈ 109 µM); in [19] it was greater than 50 µg/mL; in data set [20], 100 µg/mL (≈ 218 µM); in data set [21], greater than 100 µg/mL; in [22], 100 µg/mL (≈ 218 µM). The MIC in data set [23] was greater than 100 µg/mL; in data set [24] it was 12.5 µg/mL (≈ 27.2 µM); in data set [25], 50 µg/mL (≈ 109 µM); in data set [26], greater than 100 µg/mL; in data set [27], greater than 100 µg/mL; in [28], greater than 100 µg/mL. Also, the MIC in data set [29], in data set [30], in data set [31], in data set [32], in [33] and in data set [34] was greater than 100 µg/mL throughout. The MIC was 100 µg/mL (≈ 218 µM) in [35], greater than 100 µg/mL in data set [36], 25 µg/mL (≈ 54.4 µM) in [37] and 12.5 µg/mL (≈ 27.2 µM) in [38].

For `CC(=O)[C@H]1C(N2CC2)C[C@H]2[C@@H]3CCC4=CC(=O)CC[C@]4(C)[C@H]3CC[C@]12C` (stereo partly drawn), in data set [39], the “inhibition (INH)” value was 55%.

The compound `COC1=C(C)C(=O)C2=C(C1=O)[C@@H](COC(N)=O)[C@@]1(OC)[C@@H]3[C@H](CN21)N3C` (stereo partly drawn) [N-METHYL-MITOMYCIN A] displayed an LD50 in data set [40] of 5 µg/mL. In addition, the ED50 in [41] was 1.3 µg/mL (≈ 3.58 µM).

`C=C1C2=C(C(=O)C(C)=C(OC)C2=O)N2C[C@H]3[C@H](N3C)[C@]12O` (stereo partly drawn) [MITOMYCIN H] gave an LD50 in data set [40] of 12 µg/mL. The ED50 in data set [41] was 6.8 µg/mL (≈ 23.6 µM).

Turning to `COC1=C(C)C(=O)C2=C(C1=O)[C@H](COC(N)=O)[C@@]1(O)[C@@H]3[C@H](CN21)N3C` (stereo partly drawn) [MITOMYCIN B], the LD50 in data set [40] is 4.5 µg/mL. Besides, the ED50 in data set [41] amounted to 2.5 µg/mL (≈ 7.16 µM).

Take `COC(=O)[C@@H]1N=C1/C=C/CCCCCCCCC/C=C(/Cl)Br`: the IC50 in data set [42] amounted to 15.2 µM.

The compound `CCCCCCCCCCCCC/C=C/C1=N[C@@H]1C(=O)OC` gave a concentration for half-maximal inhibition (IC50) in data set [42] of 18.2 µM.

As for `CO[C@@]12[C@H](COC(N)=O)C3=C(C(=O)C(C)=C(N)C3=O)N1C[C@@H]1N[C@@H]12` [MITOMYCIN], the ED50 in data set [41] is 4.4 µg/mL (≈ 13.2 µM).

`CC[C@H](NC(=O)C[C@H](O)[C@H](CC(C)C)NC(=O)[C@H](CC(C)C)NC(=O)[C@@H]1N[C@H]1C(=O)O)C(=O)N[C@H](/C=C/C(=O)O)CCCN=C(N)N` [MIRAZIRIDINE A]: the INH was 6 ×10⁻⁵ M in [43], 1.4 ×10⁻⁸ M in [44], 1 ×10⁶ /M/s in [45] and 1.5 ×10⁴ /M/s in data set [46]. In data set [46], this compound gave a half-inhibitory concentration (IC50) of 2.09 µM.

Regarding `COc1ccc2c(c1)CC[C@@H]1[C@@H]2CC[C@]2(C)C(=O)C(N3CC3)C[C@@H]12` (stereo partly drawn), the “inhibition (INH)” value in data set [39] stood at 17%.

In the case of `CC(=O)O[C@H]1CC[C@@]2(C)C(=CC[C@@H]3[C@@H]2CC[C@]2(C)C(=O)C(CN4CC4)C[C@@H]32)C1` (stereo partly drawn), the “inhibition (INH)” value in data set [39] is given as 32%.

As for `CO[C@@]12[C@H](COC(N)=O)C3=C(C(=O)C(C)=C(N)C3=O)N1C[C@H]1[C@@H]2N1C` (stereo partly drawn) [PORFIROMYCIN], the LD50 in [40] worked out at 57 µg/mL. Further, in [41], the ED50 was 22 µg/mL (≈ 63.2 µM).

The compound `C=C1C2=C(C(=O)C(C)=C(OC)C2=O)N2C[C@H]3[C@H](N3C)[C@]12OC` (stereo partly drawn) [MITOMYCIN G] displayed an LD50 in [40] of 130 µg/mL. The ED50 in data set [41] came to 100 µg/mL (≈ 331 µM).

Usually Ki stands for a measure of affinity in units of concentration, obtained from inhibition or displacement. For the compound `O=C(O)[C@H]1N[C@@H]1C(=O)O`, the Ki in data set [47] was 0.08 µM; in [48], 55 µM.

In data set [40], `C=C1C2=C(C(=O)C(C)=C(N)C2=O)N2C[C@H]3[C@H](N3C)[C@]12OC` (stereo partly drawn) [MITOMYCIN K] came in with an LD50 of 22 µg/mL. In addition, in [41], the ED50 turned out to be 35 µg/mL (≈ 122 µM).
